Data published in ChEMBL document CHEMBL2046338, “Synthesis and antimalarial activity of calothrixins A and B, and their N-alkyl derivatives” (Bioorg Med Chem Lett, 2012).

Tested on: Plasmodium falciparum
Experiment: Antimalarial activity against chloroquine sensitive Plasmodium falciparum FCR-3
Format: functional
Details: FCR-3/Gambia

SMILES	IC50
CC(C)n1c2c(c3ccccc31)C(=O)c1cnc3ccccc3c1C2=O	6400 nM
O=C1c2cnc3ccccc3c2C(=O)c2c1c1ccccc1n2CCO	330 nM
Cn1c2c(c3ccccc31)C(=O)c1c[n+]([O-])c3ccccc3c1C2=O	380 nM
CCn1c2c(c3ccccc31)C(=O)c1c[n+]([O-])c3ccccc3c1C2=O	380 nM
CC(C)n1c2c(c3ccccc31)C(=O)c1c[n+]([O-])c3ccccc3c1C2=O	320 nM
O=C1c2c[n+]([O-])c3ccccc3c2C(=O)c2c1c1ccccc1n2CCO	250 nM
Cn1c2c(c3ccccc31)C(=O)c1cnc3ccccc3c1C2=O	490 nM
CCn1c2c(c3ccccc31)C(=O)c1cnc3ccccc3c1C2=O	2200 nM
O=C1c2c[n+]([O-])c3ccccc3c2C(=O)c2[nH]c3ccccc3c21 [CALOTHRIXIN A]	185 nM
O=C1c2[nH]c3ccccc3c2C(=O)c2cnc3ccccc3c21 [CALOTHRIXIN B]	120 nM
